System: symmetric dimethylation of arginine (SDMA) of PRMT5 substrates in MCF-7 cells
Assay: PRMT5 Cell Target Engagement (TE) Assay
Assay type: cell-based
Conditions: Homo sapiens, MCF7, 72 h; MCF-7 cells treated for 3 days; nuclear SDMA by high content imaging; top concentration 10000 nM
In short: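 MCF-7 cells treated 3 days at 37 °C with 10-point 1:3 titration from 10000 nM top. Fixed cells stained with anti-SDMA antibody plus Alexa488 secondary and Hoechst; nuclear fluorescence quantified by high-content imaging versus DMSO wells. EC50 from 4-parameter fit of percent fluorescence vs log concentration.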

Compound	EC50 [nM]
Nc1nc2cc(C[C@@H]3CC[C@@]4(O)[C@@H]3O[C@@H](n3ccc5c(C6CC6)ncnc53)[C@@H]4O)ccc2cc1Br [Example 87, (2R,3R,3aS,6S,6aR)-6-((2-amino-3-bromoquinolin-7-yl)methyl)-2-(4-cyclopropyl-7H-pyrrolo[2,3-d]pyrimidin-7-yl)hexahydro-3aH-cyclopenta[b]furan-3,3a-diol]	22.9
Cc1nc(N)c2ccn([C@@H]3C[C@@H]4[C@H](Cc5ccc6cc(F)c(N)nc6c5)CC[C@]4(O)[C@H]3O)c2n1 [Example 32, (1S,2R,3aR,4S,6aR)-2-(4-amino-2-methyl-7H-pyrrolo[2,3-d]pyrimidin-7-yl)-4-((2-amino-3-fluoroquinolin-7-yl)methyl) hexahydropentalene-1,6a(1H)-diol 2,2,2-trifluoroacetate]	0.8
Nc1nc2cc(C[C@H]3[C@H]4O[C@@H](n5ccc6c(N)ncnc65)[C@H](O)[C@@]4(O)C[C@@H]3F)ccc2cc1F [Example 54, (2R,3R,3aS,5S,6S,6aR)-6-[(2-amino-3-fluoroquinolin-7-yl)methyl]-2-(4-amino-7H-pyrrolo[2,3-d]pyrimidin-7-yl)-5-fluorohexahydro-3aH-cyclopenta[b]furan-3,3a-diol]	8.1
COc1ncnc2c1ccn2[C@@H]1O[C@](C)(COc2ccc3cc(Br)c(N)nc3c2)[C@@H](O)[C@H]1O [Example 12, (2R,3S,4R,5R)-2-(((2-amino-3-bromoquinolin-7-yl)oxy)methyl)-5-(4-methoxy-7H-pyrrolo[2,3-d]pyrimidin-7-yl)-2-methyltetrahydrofuran-3,4-diol]	10000
Cc1ncnc2c1ccn2[C@@H]1O[C@@H]2[C@@H](Oc3ccc4cc(F)c(N)nc4c3)CC[C@]2(O)[C@H]1O [Example 86, (2R,3R,3aS,6S,6aR)-6-((2-amino-3-fluoroquinolin-7-yl)oxy)-2-(4-methyl-7H-pyrrolo[2,3-d]pyrimidin-7-yl)hexahydro-3aH-cyclopenta[b]furan-3,3a-diol]	37.5
C[C@]1(CCc2ccc3cc4c(nc3c2)NCC4)C[C@@H](n2ccc3c(N)ncnc32)[C@H](O)[C@@H]1O [Example 126, (1S,2R,3S,5R)-5-(4-amino-7H-pyrrolo[2,3-d]pyrimidin-7-yl)-3-(2-(2,3-dihydro-1H-pyrrolo[2,3-b]quinolin-7-yl)ethyl)-3-methylcyclopentane-1,2-diol]	2.9
Nc1nc2cc(C[C@H]3[C@H]4O[C@@H](n5cc(F)c6c(N)ncnc65)[C@H](O)[C@@]4(O)C[C@@H]3F)ccc2cc1F [Example 55, (2R,3R,3aS,5S,6S,6aR)-2-(4-amino-5-fluoro-7H-pyrrolo[2,3-d]pyrimidin-7-yl)-6-[(2-amino-3-fluoroquinolin-7-yl)methyl]-5-fluorohexahydro-3aH-cyclopenta[b]furan-3,3a-diol,2,2,2-trifluoroethanol]	3.9
CNc1ncnc2c1ccn2[C@@H]1O[C@@H]2[C@@H](Oc3ccc4cc(Br)c(N)nc4c3)CC[C@]2(O)[C@H]1O [Example 94, (2R,3R,3aS,6S,6aR)-6-((2-amino-3-bromoquinolin-7-yl)oxy)-2-(4-(methylamino)-7H-pyrrolo[2,3-d]pyrimidin-7-yl)hexahydro-3aH-cyclopenta[b]furan-3,3a-diol]	5.3
Cc1ncnc2c1ccn2[C@@H]1O[C@@H]2[C@H](Cc3ccc4cc(F)c(N)nc4c3)CC[C@]2(O)[C@H]1O [Example 123, (2R,3R,3aS,6S,6aR)-6-((2-amino-3-fluoroquinolin-7-yl)methyl)-2-(4-methyl-7H-pyrrolo[2,3-d]pyrimidin-7-yl)hexahydro-3aH-cyclopenta[b]furan-3,3a-diol]	13.1
Nc1nc2cc(C[C@@H]3CC[C@@]4(O)[C@@H]3C[C@@H](n3cc(F)c5c(N)ncnc53)[C@@H]4O)cc(F)c2cc1F [Example 30, (1S,2R,3aR,4S,6aR)-4-((2-amino-3,5-difluoroquinolin-7-yl)methyl)-2-(4-amino-5-fluoro-7H-pyrrolo[2,3-d]pyrimidin-7-yl)hexahydropentalene-1,6a(1H)-diol]	0.8
C[C@]1(CCc2ccc3cc(Br)c(N)nc3c2)O[C@@H](n2ccc3c(N)ncnc32)[C@H](O)[C@]1(C)O [Example 4, (2R,3S,4R,5R)-2-(2-(2-amino-3-bromoquinolin-7-yl)ethyl)-5-(4-amino-7H-pyrrolo[2,3-d]pyrimidin-7-yl)-2,3-dimethyltetrahydrofuran-3,4-diol]	186
Nc1nc2cc(C[C@@H]3CC[C@@]4(O)[C@@H]3O[C@@H](n3cc(C(F)F)c5c(N)ncnc53)[C@@H]4O)ccc2cc1Br [Example 43, (2R,3R,3aS,6S,6aR)-6-[(2-amino-3-bromoquinolin-7-yl)methyl]-2-[4-amino-5-(difluoromethyl)-7H-pyrrolo[2,3-d]pyrimidin-7-yl]hexahydro-3aH-cyclopenta[b]furan-3,3a-diol]	1
Cc1nc(C)c2ccn([C@@H]3O[C@@H]4[C@@H](Oc5ccc6cc(Br)c(N)nc6c5)CC[C@]4(O)[C@H]3O)c2n1 [Example 80, (2R,3R,3aS,6S,6aR)-6-((2-amino-3-bromoquinolin-7-yl)oxy)-2-(2,4-dimethyl-7H-pyrrolo[2,3-d]pyrimidin-7-yl)hexahydro-3aH-cyclopenta[b]furan-3,3a-diol 2,2,2-trifluoroacetate]	97
Nc1nc2cc(C[C@@H]3CC[C@@]4(O)[C@@H]3O[C@@H](n3cc(F)c5c(N)ncnc53)[C@@H]4O)ccc2cc1Br [Example 108]	0.9
Cc1cn([C@@H]2C[C@@H]3[C@H](Cc4ccc5cc(Br)c(N)nc5c4)CC[C@]3(O)[C@H]2O)c2ncnc(N)c12 [Example 40, (1S,2R,3aR,4S,6aR)-4-((2-amino-3-bromoquinolin-7-yl)methyl)-2-(4-amino-5-methyl-7H-pyrrolo[2,3-d]pyrimidin-7-yl)hexahydropentalene-1,6a(1H)-diol]	0.7
Cc1nc(N)nc2c1ccn2[C@@H]1O[C@@H]2[C@H](Cc3ccc4cc(Br)c(N)nc4c3)CC[C@]2(O)[C@H]1O [Example 127, (2R,3R,3aS,6S,6aR)-6-((2-amino-3-bromoquinolin-7-yl)methyl)-2-(2-amino-4-methyl-7-pyrrolo[2,3-d]pyrimidin-7-yl)hexahydro-3aH-cyclopenta[b]furan-3,3a-diol]	0.8
Nc1nc2cc(C[C@H]3[C@H]4O[C@@H](n5ccc6c(N)ncnc65)[C@H](O)[C@@]4(O)CC3(F)F)ccc2cc1F [Example 53, (2R,3R,3aS,6S,6aR)-6-[(2-amino-3-fluoroquinolin-7-yl)methyl]-2-(4-amino-7H-pyrrolo[2,3-d]pyrimidin-7-yl)-5,5-difluorohexahdro-3aH-cyclopenta[b]furan-3,3a-diol]	4.5
Cc1nc(C)c2ccn([C@@H]3O[C@@H]4[C@H](Cc5ccc6cc(F)c(N)nc6c5)CC[C@]4(O)[C@H]3O)c2n1 [Example 90, (2R,3R,3aS,6S,6aR)-6-((2-amino-3-fluoroquinolin-7-yl)methyl)-2-(2,4-dimethyl-7H-pyrrolo[2,3-d]pyrimidin-7-yl)hexahydro-3aH-cyclopenta[b]furan-3,3a-diol]	42.2
Nc1nc2cc(C[C@@H]3CC[C@@]4(O)[C@@H]3O[C@@H](n3ccc5c(N)ncnc53)[C@@H]4O)ccc2cc1Cl [Example 67, (2R,3R,3aS,6S,6aR)-6-((2-amino-3-chloroquinolin-7-yl)methyl)-2-(4-amino-7H-pyrrolo[2,3-d]pyrimidin-7-yl)hexahydro-3aH-cyclopenta[b]furan-3,3a-diol]	1.2
CNc1ncnc2c1c(F)cn2[C@@H]1O[C@@H]2[C@H](Cc3ccc4cc(Br)c(N)nc4c3)CC[C@]2(O)[C@H]1O [Example 96, (2R,3R,3aS,6S,6aR)-6-((2-amino-3-bromoquinolin-7-yl)methyl)-2-(5-fluoro-4-(methylamino)-7H-pyrrolo[2,3-d]pyrimidin-7-yl)hexahydro-3aH-cyclopenta[b]furan-3,3a-diol]	11.1
C[C@@]1(O)[C@@H](COc2ccc3ccc(N)nc3c2)C[C@@H](n2ccc3cncnc32)[C@@H]1O [Example 105, (1R,2S,3R,5R)-5-(((2-aminoquinolin-7-yl)oxy)methyl)-1-methyl-3-(7H-pyrrolo[2,3-d]pyrimidin-7-yl)cyclopentane-1,2-diol]	0.9
CNc1ncnc2c1ccn2[C@@H]1O[C@@H]2[C@H](Cc3ccc4cc(Br)c(N)nc4c3)CC[C@]2(O)[C@H]1O [Example 92]	9.9
Cc1ncnc2c1ccn2[C@@H]1C[C@@H]2[C@H](Cc3ccc4cc(Br)c(N)nc4c3)CC[C@]2(O)[C@H]1O [Example 19, (1S,2R,3aR,4S,6aR)-4-((2-amino-3-bromoquinolin-7-yl)methyl)-2-(4-methyl-7H-pyrrolo[2,3-d]pyrimidin-7-yl)hexahydropentalene-1,6a(1H)-diol]	1.1
Nc1nc2cc(O[C@H]3CC[C@@]4(O)[C@@H]3O[C@@H](n3cc(F)c5c(N)ncnc53)[C@@H]4O)ccc2cc1F [Example 73, (2R,3R,3aS,6S,6aR)-6-((2-amino-3-fluoroquinolin-7-yl)oxy)-2-(4-amino-5-fluoro-7H-pyrrolo[2,3-d]pyrimidin-7-yl)hexahydro-3aH-cyclopenta[b]furan-3,3a-diol]	2
Cc1ncnc2c1c(F)cn2[C@@H]1O[C@@H]2[C@H](Cc3ccc4cc(Br)c(N)nc4c3)CC[C@]2(O)[C@H]1O [Example 84, (2R,3R,3aS,6S,6aR)-6-((2-amino-3-bromoquinolin-7-yl)methyl)-2-(5-fluoro-4-methyl-7H-pyrrolo[2,3-d]pyrimidin-7-yl)hexahydro-3aH-cyclopenta[b]furan-3,3a-diol]	7.5
Cc1nc(N)nc2c1ccn2[C@@H]1O[C@@H]2[C@@H](Oc3ccc4cc(Br)c(N)nc4c3)CC[C@]2(O)[C@H]1O [Example 114, (2R,3R,3aS,6S,6aR)-6-((2-amino-3-bromoquinolin-7-yl)oxy)-2-(2-amino-4-methyl-7H-pyrrolo[2,3-d]pyrimidin-7-yl)hexahydro-3aH-cyclopenta[b]furan-3,3a-diol]	4.4

From patent US12173026B2, “PRMT5 inhibitors” (Merck Sharp & Dohme LLC, priority 2018, dated 2024)
